Source: patent US20230279379A1, “METHODS AND MICROFLUIDIC DEVICE FOR PRODUCING EXTRACELLULAR VESICLES” (THE BOARD OF TRUSTEES OF THE UNIVERSITY OF ILLINOIS, priority 2022, published 2023)

What was measured:
[1] = system: Primary human MSCs; assay: EV secretion per cell from MSCs on hydrogel substrates, nanoparticle tracking analysis; type: cell-based; conditions: 5 μM CK869; hydrogels
Procedure: Cell Seeding on Hydrogels. Hydrogel discs were placed in ultra-low binding polystyrene well plates (Corning) to ensure cells attach to hydrogels and not the plate surface. Hydrogels were washed with Hank's buffered salt solution (HBSS, Thermo Fisher Scientific) for at least 3 days before seeding cells. Cells were seeded at a low density (25 cells/mm^2). After seeding, hydrogels were washed thoroughly to remove unattached cells. Drug treatments of 3 μM MnCl2 (Thermo Fisher Scientific), 200 nM EMD 121974 sold under the tradename Cilengitide® (Cayman) and 5 μM CK869 (Cayman) were applied during and after cell adhesion to substrates. To evaluate the number of live cells seeded on substrates, cells were detached by incubating with a natural enzyme mixture with proteolytic and collagenolytic enzyme activity sold under the tradename ACCUTASE® Cell Detachment Solution (Innovative Cell Technologies, Inc.) for 10 minute at 37° C. Cells were then washed by centrifugation and directly added to HBSS containing calcein AM (1:2000; Biotium), ethidium bromide (1:2000; Thermo Fisher Scientific), and a predefined number of allophycocyanin (APC) beads (BD). After incubation at room temperature (RT) for 10 minutes, the samples were analyzed for live and dead cell number by flow cytometry.
Particle Size and Number Characterization. Particle size and number were obtained using Nanoparticle Tracking Analysis 3.2 (NTA) via NanoSight NS300 (Malvern) using a 405 nm laser. Samples were introduced by syringe pump at a rate 100 μL/min. Three thirty-second videos were acquired using camera level 14 followed by detection threshold 7. Camera focus, shutter, blur, minimum track length, minimum expected particle size and maximum jump length were set automatically by the software. Samples were diluted as needed to maintain particles per video from 100-2000. To ensure specificity, all samples were tested as compared to appropriate blank conditions.
To test the effect of substrate mechanics on EV secretion from MSCs, hydrogel substrates were engineered which were composed of alginate polymer conjugated with the cell adhesion peptide Arg-Gly-Asp (RGD) that binds primarily to αvβ3 and α5β1 integrins. Alginate-RGD hydrogels can be formed either covalently through adipic acid dihydrazide or physically through divalent cations, resulting in elastic or stress-relaxing hydrogels, respectively. For both types of hydrogels, elastic modulus (Young's modulus, E) of ˜3 kPa ‘soft’ and E ˜20 kPa ‘stiff’ were considered values that represent a physiologically relevant range of substrate elasticity for MSC mechanosensing, while E is ˜0.1 GPa for conventional plastic substrates. Primary human bone marrow MSCs were allowed to adhere to substrates for 24 hours followed by washout and collection of the serum-free conditioned medium from MSCs after 24 hours. After centrifugation of the medium at 10,000 g to remove cell, apoptotic, and larger particle fractions, particles remaining in the medium were analyzed by nanoparticle tracking analysis and normalized to the number of live adhered cells counted by flow cytometry (see Methods). MSCs were seeded at low density (˜25 cells/mm^2) to avoid potential effects from cell-cell interactions. […] Thus, focus was placed on the EVs remaining in the supernatant after the 10,000 g centrifugation. For these EVs, the particle size distribution remained similar across different substrates with median diameter ˜120 nm (FIG. 1B). […] Moreover, EVs from different substrates expressed similar levels of late endosomal markers CD63 and CD9. Importantly, levels of ribosomal RNA (rRNA) in particle preparations were similar across hydrogels or plastic substrates, and rRNA as a percentage of total RNA was lower than that found in untreated MSCs or particles derived from H2O2-treated apoptotic MSCs, ruling out apoptosis as a potential factor of increased EV secretion on the soft hydrogel. […]

[2] = system: F-actin in MSCs; assay: dSTORM super-resolution imaging and DBSCAN clustering of F-actin; type: cell-based; conditions: CK869 treatment for 2 hours
Procedure: Sample Preparation for Imaging of F-Actin in Cells on Hydrogels. To prepare samples for F-actin imaging, glass bottom dishes (No 0., 35 mm; MatTek) were silanized, and a thin layer of PEG-DA hydrogel with varied elasticity was formed as described above. After cell seeding on hydrogels and culturing cells in the presence of DMSO or CK869, cells were permeabilized with 0.0015% saponin (Sigma) in a cytoskeleton buffer (10 mM MES, pH 6.0, 150 mM NaCl, 5 mM EGTA, 5 mM glucose, and 5 mM MgCl2) for 4 minutes at room temperature. The samples were then washed with the cytoskeleton buffer 3 times and fixed with 4% paraformaldehyde in the cytoskeleton buffer for 20 minutes at room temperature. […]
Super-Resolution Imaging of F-actin. […] 50,000 images were recorded for each cell in each condition; after rejecting overtly dense/bleached images approx. 30,000 images were analyzed in each cell/condition for localization detection in post-processing using ThunderSTORM (ImageJ), with the following settings in brief: wavelet filtering (B-spline order 3, scale 2); integrated Gaussian fitting (radius: 3 pixels, initial sigma: 1.6 pixels); local maximum with 8-neighborhood; camera pixel size 160 nm. […]
Nanoscale Clustering Analysis of F-actin. […] The percentage of F-actin localizations that belong to each cluster group per cell was then quantified and used for statistical analysis.

Q: How did the “EV secretion compared to DMSO” value [1] turn out when `COc1ccc(N2C(=O)CSC2c2cccc(Br)c2)c(OC)c1` (centres unmarked) [CK869] was run?
A: significantly increased EV secretion

Q: What about the “distribution of F-actin clusters” value [2] of the same compound?
A: did not alter the distribution of different F-actin clusters on both substrates
